Activity calls are given as the source filed them. No cut-off for these calls is given here.
Assays:
[1] = Apparent terminal half life in Sprague-Dawley rat at […], iv; type: ADME, organism-based; set-up: dose 4.7 mg/kg, route intravenous; conditions: in vivo, read-out: betat1/2(app) (converted)
[2] = test system: Plasmodium berghei; test: Antimalarial activity against Plasmodium berghei ANKA expressing GFP infected in po dosed Sprague-Dawley rat assessed as reduction in parasitemia administered as single dose measured on day 3 post-infection by flow cytometry; type: functional; conditions: 72 h
[3] = Total plasma clearance in Sprague-Dawley rat at […], iv; type: ADME, organism-based; set-up: dose 4.7 mg/kg, route intravenous
[4] = Oral bioavailability in Sprague-Dawley rat at 22.3 mg/kg; type: ADME, organism-based; conditions: in vivo
[5] = test system: Plasmodium berghei; test: Antimalarial activity against Plasmodium berghei ANKA expressing GFP infected in Sprague-Dawley rat assessed as reduction in parasitemia at 30 mg/kg, po administered as single dose measured on day 3 post-infection by flow cytometry; type: functional; set-up: scale not given: the % may be the effect or the level left
[6] = AUC (0 to infinity) in Sprague-Dawley rat at 22.3 mg/kg, po; type: ADME, organism-based; set-up: time infinity, dose 22.3 mg/kg, route oral; conditions: plasma
[7] = test system: Plasmodium berghei; test: Antimalarial activity against Plasmodium berghei ANKA expressing GFP infected in Sprague-Dawley rat assessed as reduction in parasitemia at 3 mg/kg, po administered as single dose measured on day 3 post-infection by flow cytometry; type: functional; set-up: scale not given: the % may be the effect or the level left
[8] = test system: Plasmodium berghei; test: Antimalarial activity against Plasmodium berghei ANKA expressing GFP infected in Sprague-Dawley rat assessed as mean survival days of host at 30 mg/kg, po administered as single dose; type: functional
[9] = Volume of distribution at steady state in Sprague-Dawley rat at […], iv; type: ADME, organism-based; set-up: dose 4.7 mg/kg, route intravenous; conditions: in vivo, read-out: Vdss
[10] = Half life in human liver microsomes at 1 uM; type: ADME, Microsome
[11] = Total blood clearance in Sprague-Dawley rat at […], iv; type: ADME, organism-based; set-up: dose 4.7 mg/kg, route intravenous; conditions: whole blood
[12] = Tmax in Sprague-Dawley rat at 5 mg/kg, po; type: ADME, organism-based; set-up: dose 5 mg/kg, route oral; conditions: in vivo
[13] = Cmax in Sprague-Dawley rat at 5 mg/kg, po; type: ADME, organism-based; set-up: dose 5 mg/kg, route oral; conditions: in vivo
[14] = test system: Plasmodium berghei; test: Antimalarial activity against Plasmodium berghei ANKA expressing GFP infected in Sprague-Dawley rat assessed as mean survival days of host at 100 mg/kg, po administered as single dose; type: functional
[15] = Intrinsic clearance in human liver microsomes at 1 uM up to 60 mins; type: ADME, Microsome; conditions: read-out: CLH
[16] = test system: Plasmodium berghei; test: Antimalarial activity against Plasmodium berghei ANKA expressing GFP infected in Sprague-Dawley rat assessed as total cure from parasite at 50 mg/kg, po administered as 4 doses measured on day 30 post-infection by flow cytometry; type: functional, organism-based; set-up: dose 50 mg/kg
[17] = AUC (0 to infinity) in Sprague-Dawley rat at 5 mg/kg, po; type: ADME, organism-based; set-up: time infinity, dose 5 mg/kg, route oral; conditions: plasma
[18] = test system: Plasmodium berghei; test: Antimalarial activity against Plasmodium berghei ANKA expressing GFP infected in Sprague-Dawley rat assessed as reduction in parasitemia at 100 mg/kg, po administered as single dose measured on day 3 post-infection by flow cytometry; type: functional; set-up: scale not given: the % may be the effect or the level left
[19] = test system: Plasmodium berghei; test: Antimalarial activity against Plasmodium berghei ANKA expressing GFP infected in Sprague-Dawley rat assessed as host survival at 3 mg/kg, po administered as single dose measured 6 days post-infection; type: functional, organism-based; set-up: dose 3 mg/kg
[20] = test system: Plasmodium berghei; test: Antimalarial activity against Plasmodium berghei ANKA expressing GFP infected in Sprague-Dawley rat assessed as mean survival days of host at 3 mg/kg, po administered as single dose; type: functional
[21] = test system: Plasmodium berghei; test: Antimalarial activity against Plasmodium berghei ANKA expressing GFP infected in Sprague-Dawley rat assessed as reduction in parasitemia at 10 mg/kg, po administered as single dose measured on day 3 post-infection by flow cytometry; type: functional; set-up: scale not given: the % may be the effect or the level left
[22] = Partition coefficient, log D of the compound at pH 7.4 by phase gradient HPLC analysis; type: physicochemical; conditions: octanol/water
[23] = test system: Plasmodium berghei; test: Antimalarial activity against Plasmodium berghei ANKA expressing GFP infected in Sprague-Dawley rat assessed as mean survival days of host at 10 mg/kg, po administered as single dose; type: functional
[24] = test system: Plasmodium berghei; test: Antimalarial activity against Plasmodium berghei ANKA expressing GFP infected in Sprague-Dawley rat assessed as mean survival days of host at 50 mg/kg, po administered as 4 doses; type: functional
[25] = AUC (0 to infinity) in Sprague-Dawley rat at […], iv; type: ADME, organism-based; set-up: time infinity, dose 4.7 mg/kg, route intravenous; conditions: plasma
[26] = Apparent terminal half life in Sprague-Dawley rat at 5 mg/kg, po; type: ADME, organism-based; set-up: dose 5 mg/kg, route oral; conditions: in vivo, read-out: betat1/2(app) (converted)
[27] = Apparent terminal half life in Sprague-Dawley rat at 22.3 mg/kg, po; type: ADME, organism-based; set-up: dose 22.3 mg/kg, route oral; conditions: in vivo, read-out: betat1/2(app) (converted)
[28] = Tmax in Sprague-Dawley rat at 22.3 mg/kg, po; type: ADME, organism-based; set-up: dose 22.3 mg/kg, route oral; conditions: in vivo
[29] = Oral bioavailability in Sprague-Dawley rat at 5 mg/kg; type: ADME, organism-based; conditions: in vivo
[30] = test system: Plasmodium berghei; test: Antimalarial activity against Plasmodium berghei ANKA expressing GFP infected in Sprague-Dawley rat assessed as reduction in parasitemia at 50 mg/kg, po administered as 4 doses measured on day 4 post-infection by flow cytometry; type: functional; set-up: scale not given: the % may be the effect or the level left
[31] = Cmax in Sprague-Dawley rat at 22.3 mg/kg, po; type: ADME, organism-based; set-up: dose 22.3 mg/kg, route oral; conditions: in vivo

COc1ccc(-c2cc(-c3ccc(S(C)(=O)=O)cc3)cnc2N)cn1
half-life [1]: 8 h | ED50 [2]: 4.7 mg/kg | ED90 [2]: 17 mg/kg | clearance [3]: 16.7 mL/min/kg | bioavailability [4]: > 100% | Activity [5]: 99% | AUC(0-inf) [6]: 115 µM·h | Activity [7]: <40% | MSD [8]: 8 days | Vd [9]: 4.3 L/kg | half-life at 1 µM [10]: > 1.65 h | clearance [11]: 18.3 mL/min/kg | Tmax [12]: 0.25 h | Cmax [13]: 5.4 µM | MSD [14]: 21 days | microsomal CLint at 1 µM [15]: < 28 µL/min/mg | Activity [16]: Active | AUC(0-inf) [17]: 11.8 µM·h | Activity [18]: >99.3% | Activity [19]: inactive | MSD [20]: 3 days | Activity [21]: 82% | chromatographic logD [22]: 2.2 | MSD [23]: 7 days | MSD [24]: >30 days | AUC(0-inf) [25]: 13.2 µM·h | half-life [26]: 6.7 h | half-life [27]: 6.5 h | Tmax [28]: 1.75 h | bioavailability [29]: 83% | Activity [30]: 99.8% | Cmax [31]: 21 µM

From ChEMBL document CHEMBL2040800 (J Med Chem, 2012)
